Data reported in PubChem BioAssay (NCI).
Values joined by “and” are separate entries in the source; they are usually repeats but may differ in a detail not shown here. Equal entries are not always repeated.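 These data come from cells grown in 96-well plates and exposed to compound for 48 hours at five concentrations. At the GI50, growth is halved. Definition used: TGI = concentration required for complete inhibition of growth.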

Columns and labels:
Assay in all cases: DTP human tumour cell line panel, 48 h
IGROV1 ovarian = system: IGROV1 ovarian
K-562 leukemia = system: K-562 leukemia
M14 melanoma = system: M14 melanoma
RPMI-8226 leukemia = system: RPMI-8226 leukemia
SK-OV-3 ovarian = system: SK-OV-3 ovarian
U251 CNS = system: U251 CNS
UO-31 renal = system: UO-31 renal
BT-549 breast = system: BT-549 breast
MCF7 breast = system: MCF7 breast
MDA-MB-435 = system: MDA-MB-435

Structure (SMILES)	TGI (IGROV1 ovarian) [µM]	TGI (K-562 leukemia) [µM]	TGI (M14 melanoma)	TGI (RPMI-8226 leukemia) [µM]	TGI (SK-OV-3 ovarian) [µM]	TGI (U251 CNS) [µM]	TGI (UO-31 renal) [µM]	GI50 (BT-549 breast) [µM]	TGI (BT-549 breast)	GI50 (IGROV1 ovarian)	GI50 (K-562 leukemia)	GI50 (M14 melanoma)	GI50 (MCF7 breast)	GI50 (MDA-MB-435)	TGI (MDA-MB-435) [µM]	GI50 (SK-OV-3 ovarian)	GI50 (U251 CNS)	GI50 (UO-31 renal)	TGI (MCF7 breast) [µM]	GI50 (RPMI-8226 leukemia) [µM]
O=C(c1ccccn1)c1nc(-c2ccc(Cl)c(Cl)c2)nc2ccc(Cl)cc12	> 100	> 100	> 100 µM	> 100	> 100	> 100	> 100													
c1ccc(CCCC2Sc3cccc4cccc(c34)S2)cc1	> 100	> 100	> 100 µM	> 100	> 100	> 100	> 100													
CCCCNC(=O)OCC(COc1ccccc1OC)OC(=O)NCCCC (configuration not stated)	> 100	> 100	> 100 µM	> 100	> 100	> 100	> 100													
Cc1cc(Cl)ccc1NC(=O)C(=O)Cc1ccc([N+](=O)[O-])c([N+](=O)[O-])c1CC(=O)C(=O)Nc1ccc(Cl)cc1C	> 100	> 100	> 100 µM	> 100	> 100	> 100	> 100													
COc1ccc2[nH]c3c(C)c4cc[n+](C)cc4c(C)c3c2c1			85.3 µM and 29.8 µM					0.733	5.18 µM and 4.97 µM and 1.79 µM	1.01 µM and 1.13 µM	2 µM [middle of 4 runs]	16.1 µM and 12.9 µM and 2.33 µM	1.51 µM and 0.885 µM	13.4 µM and 5.86 µM	> 88.3	4.31 µM and 1.57 µM	0.0689 µM and 0.0524 µM	13.6 µM and 15.6 µM		
COc1cc2c(cc1OC)C(=O)Cc1ccc3c(c1CNCC2)OCO3	> 100	> 100	> 100 µM	> 100	> 100	> 100	> 100													
CC(C)c1cccc(C(C)C)c1NC(=O)C(=O)CC(=O)CC(c1ccccc1)c1c(O)c2ccccc2oc1=O (configuration not stated)	> 100	> 100	> 100 µM	> 100	> 100		> 100													
Fc1c[c-]c(-c2ccccn2)c(F)c1.[CH3-].[Pt+2].c1ccc([PH+](c2ccccc2)c2ccccn2)cc1	5.02	> 100		4.44	> 100	6.02	2.28			1.71 µM	1.78 µM		1.22 µM	1.74 µM	3.45	5.09 µM	1.88 µM	1.08 µM	3.23	0.412
CN(C)CCN1C(=O)c2cccc3c(N)ccc(c23)C1=O		20.4	> 25 µM	> 25	> 25	> 25	> 25	> 25	> 25 µM		6.76 µM	11.3 µM	7.59 µM	11.1 µM	> 25	15.9 µM	10.7 µM	6.76 µM	> 25	7.71
C=CC[N+]1(CCO)CCN=C1CCCCCCCCCCCCC (configuration not stated)	1.25		2.99 µM		3.14	2.6	2.57	1.76	3.24 µM	0.288 µM		1.64 µM	1.5 µM	1.72 µM	3.09	1.73 µM	1.33 µM	1.18 µM	2.82	
Cc1nc2nn(Cc3ccccc3)cc2c(=O)o1	> 100	> 100		> 100		> 100	> 100													
O=[N+]([O-])c1cccc(/C=C/c2ccccn2)c1	> 100	> 100	> 100 µM	> 100	> 100	> 100	> 100			28 µM	41.2 µM	52.1 µM	0.569 µM	67 µM	> 100	33.6 µM	6.68 µM	23.3 µM	> 100	40.2
CCOc1ccccc1NC(=O)C(=O)C(C(=O)c1ccc2ccccc2c1)C1OC(=O)c2ccccc21 (configuration not stated)	35.2	> 100	36.4 µM	40	52.8	22.5	29.1													
O=C1OCC2=C1C(c1cccc(C(F)(F)F)c1)c1cc3c(cc1N2CCO)OCO3 (configuration not stated)	> 50	> 50		> 50	> 50	> 50	> 50	0.919	27.3 µM	1.61 µM	0.273 µM		0.415 µM	0.161 µM	0.641	2.37 µM	1.82 µM	2.19 µM	> 50	1.79
Fc1ccc2c(c1)SC1Oc3ccccc3-c3c1c-2nn3-c1ccccc1 (configuration not stated)	> 100	> 100		> 100	> 100	> 100	> 100													
O=C(N[C@@H]1C=CCC[C@@H]1c1ccccc1)OCc1ccccc1	68.9	> 100	34.5 µM	57.2	> 100	32.9	36.7													
O=C(CCc1ccco1)NC1CCN(CC2(c3ccc(Cl)cc3)CCC2)CC1	45.8	4.62		35	32.9	26.4	21.3	15.2	29.6 µM	19.5 µM	2.17 µM		11.5 µM	11.8 µM	24.1	16.9 µM	13.1 µM	7.37 µM	26.7	13.2
CC(C)[C@H]1CO[C@@H]2O[C@H](C)CC(=O)N21	> 100	> 100	> 100 µM	> 100	> 100	> 100	> 100													
C/C=C/C(=O)[C@@H](O)C(C)C	> 100	> 100		> 100	> 100	> 100	> 100													
Clc1ccccc1C1N2CCCCC2[C@@H]2c3[nH]c4ccccc4c3CCN12 (some centres not stated)	> 100	44.2	31.3 µM	66.6	55	31.9	39													
